Test results taken from ChEMBL document CHEMBL3046590, “Design and synthesis of some thiazolotriazolyl esters as anti-inflammatory and analgesic agents” (Med Chem Res, 2012).

Legend:
Mus musculus [1] = assay: Toxicity in Mus musculus BALB/c (mouse) assessed as behavioral changes at 50 to 200 mg/kg, po after 72 hr; format: organism-based; parameters: dose 50-200 mg/kg, route oral; conditions: in vivo
Mus musculus [2] = assay: Anti-inflammatory activity in Mus musculus BALB/c (mouse) assessed as inhibition of carrageenan-induced paw swelling at 10 mg/kg, po administered 1 hr followed by carrageenan challenge measured at 360 min relative to control; format: functional
Mus musculus [3] = assay: Toxicity in Mus musculus BALB/c (mouse) assessed as mortality at 50 to 200 mg/kg, po after 72 hr; format: organism-based; parameters: dose 50-200 mg/kg, route oral; conditions: in vivo
Mus musculus [4] = assay: Anti-inflammatory activity in Mus musculus BALB/c (mouse) assessed as inhibition of carrageenan-induced paw swelling at 10 mg/kg, po administered 1 hr followed by carrageenan challenge measured at 90 min relative to control; format: functional
Mus musculus [5] = assay: Anti-inflammatory activity in Mus musculus BALB/c (mouse) assessed as inhibition of carrageenan-induced paw swelling at 10 mg/kg, po administered 1 hr followed by carrageenan challenge measured at 270 min relative to control; format: functional
Mus musculus [6] = assay: Anti-inflammatory activity in Mus musculus BALB/c (mouse) assessed as inhibition of carrageenan-induced paw swelling at 10 mg/kg, po administered 1 hr followed by carrageenan challenge measured at 180 min relative to control; format: functional
Mus musculus [7] = assay: Anti-inflammatory activity in Mus musculus BALB/c (mouse) assessed as inhibition of carrageenan-induced paw swelling at 50 mg/kg, po administered 1 hr followed by carrageenan challenge measured at 90 min relative to control; format: functional
Mus musculus [8] = assay: Anti-inflammatory activity in Mus musculus BALB/c (mouse) assessed as carrageenan-induced paw swelling at 200 mg/kg, po administered 1 hr followed by carrageenan challenge measured at 180 min (reference value: 52 +/- 4.6 x 10^-2 mm); format: functional
Mus musculus [9] = assay: Anti-inflammatory activity in Mus musculus BALB/c (mouse) assessed as carrageenan-induced paw swelling at 200 mg/kg, po administered 1 hr followed by carrageenan challenge measured at 270 min (reference value: 78 +/- 8.4 x 10^-2 mm); format: functional
Mus musculus [10] = assay: Analgesic activity in Mus musculus BALB/c (mouse) assessed as inhibition of acetic acid-induced writhing at 100 mg/kg, po administered 1 hr followed by acetic acid challenge measured for 10 min; format: functional
Mus musculus [11] = assay: Anti-inflammatory activity in Mus musculus BALB/c (mouse) assessed as inhibition of carrageenan-induced paw swelling at 200 mg/kg, po administered 1 hr followed by carrageenan challenge measured at 270 min relative to control; format: functional
Mus musculus [12] = assay: Anti-inflammatory activity in Mus musculus BALB/c (mouse) assessed as carrageenan-induced paw swelling at 50 mg/kg, po administered 1 hr followed by carrageenan challenge measured at 270 min (reference value: 78 +/- 8.4 x 10^-2 mm); format: functional
Mus musculus [13] = assay: Anti-inflammatory activity in Mus musculus BALB/c (mouse) assessed as carrageenan-induced paw swelling at 100 mg/kg, po administered 1 hr followed by carrageenan challenge measured at 180 min (reference value: 52 +/- 4.6 x 10^-2 mm); format: functional
Mus musculus [14] = assay: Anti-inflammatory activity in Mus musculus BALB/c (mouse) assessed as carrageenan-induced paw swelling at 100 mg/kg, po administered 1 hr followed by carrageenan challenge measured at 90 min (reference value: 39 +/- 5.6 x 10^-2 mm); format: functional
Mus musculus [15] = assay: Anti-inflammatory activity in Mus musculus BALB/c (mouse) assessed as carrageenan-induced paw swelling at 100 mg/kg, po administered 1 hr followed by carrageenan challenge measured at 360 min (reference value: 105 +/- 4.5 x 10^-2 mm); format: functional
Mus musculus [16] = assay: Antioxidant activity in Mus musculus BALB/c (mouse) stomach assessed as TBARS level at 100 mg/kg, po (reference value: 80.4 +/- 5.4 nmol/g ); format: functional
Mus musculus [17] = assay: Anti-inflammatory activity in Mus musculus BALB/c (mouse) assessed as inhibition of carrageenan-induced paw swelling at 100 mg/kg, po administered 1 hr followed by carrageenan challenge measured at 360 min relative to control; format: functional
Mus musculus [18] = assay: Anti-inflammatory activity in Mus musculus BALB/c (mouse) assessed as inhibition of carrageenan-induced paw swelling at 100 mg/kg, po administered 1 hr followed by carrageenan challenge measured at 270 min relative to control; format: functional
Mus musculus [19] = assay: Anti-inflammatory activity in Mus musculus BALB/c (mouse) assessed as carrageenan-induced paw swelling at 50 mg/kg, po administered 1 hr followed by carrageenan challenge measured at 360 min (reference value: 105 +/- 4.5 x 10^-2 mm); format: functional
Mus musculus [20] = assay: Anti-inflammatory activity in Mus musculus BALB/c (mouse) assessed as carrageenan-induced paw swelling at 100 mg/kg, po administered 1 hr followed by carrageenan challenge measured at 270 min (reference value: 78 +/- 8.4 x 10^-2 mm); format: functional
Mus musculus [21] = assay: Anti-inflammatory activity in Mus musculus BALB/c (mouse) assessed as carrageenan-induced paw swelling at 200 mg/kg, po administered 1 hr followed by carrageenan challenge measured at 90 min (reference value: 39 +/- 5.6 x 10^-2 mm); format: functional
Mus musculus [22] = assay: Anti-inflammatory activity in Mus musculus BALB/c (mouse) assessed as inhibition of carrageenan-induced paw swelling at 50 mg/kg, po administered 1 hr followed by carrageenan challenge measured at 180 min relative to control; format: functional
Mus musculus [23] = assay: Anti-inflammatory activity in Mus musculus BALB/c (mouse) assessed as carrageenan-induced paw swelling at 50 mg/kg, po administered 1 hr followed by carrageenan challenge measured at 90 min (reference value: 39 +/- 5.6 x 10^-2 mm); format: functional
Mus musculus [24] = assay: Anti-inflammatory activity in Mus musculus BALB/c (mouse) assessed as carrageenan-induced paw swelling at 200 mg/kg, po administered 1 hr followed by carrageenan challenge measured at 360 min (reference value: 105 +/- 4.5 x 10^-2 mm); format: functional
Mus musculus [25] = assay: Anti-inflammatory activity in Mus musculus BALB/c (mouse) assessed as carrageenan-induced paw swelling at 50 mg/kg, po administered 1 hr followed by carrageenan challenge measured at 180 min (reference value: 52 +/- 4.6 x 10^-2 mm); format: functional
Mus musculus [26] = assay: Anti-inflammatory activity in Mus musculus BALB/c (mouse) assessed as inhibition of carrageenan-induced paw swelling at 200 mg/kg, po administered 1 hr followed by carrageenan challenge measured at 180 min relative to control; format: functional
Mus musculus [27] = assay: Anti-inflammatory activity in Mus musculus BALB/c (mouse) assessed as inhibition of carrageenan-induced paw swelling at 100 mg/kg, po administered 1 hr followed by carrageenan challenge measured at 180 min relative to control; format: functional
Mus musculus [28] = assay: Anti-inflammatory activity in Mus musculus BALB/c (mouse) assessed as inhibition of carrageenan-induced paw swelling at 200 mg/kg, po administered 1 hr followed by carrageenan challenge measured at 90 min relative to control; format: functional
Mus musculus [29] = assay: Anti-inflammatory activity in Mus musculus BALB/c (mouse) assessed as inhibition of carrageenan-induced paw swelling at 50 mg/kg, po administered 1 hr followed by carrageenan challenge measured at 270 min relative to control; format: functional
Mus musculus [30] = assay: Anti-inflammatory activity in Mus musculus BALB/c (mouse) assessed as inhibition of carrageenan-induced paw swelling at 200 mg/kg, po administered 1 hr followed by carrageenan challenge measured at 360 min relative to control; format: functional
Mus musculus [31] = assay: Anti-inflammatory activity in Mus musculus BALB/c (mouse) assessed as inhibition of carrageenan-induced paw swelling at 50 mg/kg, po administered 1 hr followed by carrageenan challenge measured at 360 min relative to control; format: functional
Mus musculus [32] = assay: Anti-inflammatory activity in Mus musculus BALB/c (mouse) assessed as inhibition of carrageenan-induced paw swelling at 100 mg/kg, po administered 1 hr followed by carrageenan challenge measured at 90 min relative to control; format: functional

SMILES | Activity (Mus musculus [1]) | Activity (Mus musculus [3]) | Activity (Mus musculus [8]) | Activity (Mus musculus [9]) | inhibition in vivo at 100 mg/kg (Mus musculus [10]) | inhibition in vivo at 200 mg/kg (Mus musculus [11]) | Activity (Mus musculus [12]) | Activity (Mus musculus [13]) | Activity (Mus musculus [14]) | Activity (Mus musculus [15]) | Activity (Mus musculus [16]) | inhibition in vivo at 100 mg/kg (Mus musculus [17]) | inhibition in vivo at 100 mg/kg (Mus musculus [18]) | Activity (Mus musculus [19]) | Activity (Mus musculus [20]) | Activity (Mus musculus [21]) | Activity (Mus musculus [23]) | Activity (Mus musculus [24]) | Activity (Mus musculus [25]) | inhibition in vivo at 100 mg/kg (Mus musculus [27]) | other results
COc1ccc2c(c1)c(CC(=O)O)c(C)n2C(=O)c1ccc(Cl)cc1 [INDOMETHACIN] | Non-toxic | Non-toxic | – | – | – | – | – | – | – | – | – | – | – | – | – | – | – | – | – | – | inhibition in vivo at 10 mg/kg (Mus musculus [2]): 26.7%; inhibition in vivo at 10 mg/kg (Mus musculus [4]): 6.9%; inhibition in vivo at 10 mg/kg (Mus musculus [5]): 34.6%; inhibition in vivo at 10 mg/kg (Mus musculus [6]): 56.7%
CCOC(=O)c1sc2nc(CCc3cc(OC)c(OC)c(OC)c3)nn2c1C | Non-toxic | Non-toxic | 38.9 ×10⁻² mm | 60.9 ×10⁻² mm | 85.9% | 21.9% | 73.8 ×10⁻² mm | 37 ×10⁻² mm | 34.5 ×10⁻² mm | 83.8 ×10⁻² mm | 109.1 nmol/g | 20.2% | 18.7% | 101.4 ×10⁻² mm | 63.4 ×10⁻² mm | 32.4 ×10⁻² mm | 19.5 ×10⁻² mm | 92.9 ×10⁻² mm | 29 ×10⁻² mm | 28.8% | inhibition in vivo at 50 mg/kg (Mus musculus [7]): 50%; inhibition in vivo at 50 mg/kg (Mus musculus [22]): 44.2%; inhibition in vivo at 200 mg/kg (Mus musculus [26]): 25.2%
COc1ccc(-c2nnc(S)[nH]2)cc1 | Non-toxic | Non-toxic | 53.2 ×10⁻² mm | 75 ×10⁻² mm | – | – | 64.8 ×10⁻² mm | 32.3 ×10⁻² mm | 33.7 ×10⁻² mm | 133 ×10⁻² mm | 73.3 nmol/g | – | – | 100 ×10⁻² mm | 79.5 ×10⁻² mm | 32.4 ×10⁻² mm | 59.3 ×10⁻² mm | 104.5 ×10⁻² mm | 49.7 ×10⁻² mm | 37.9% | inhibition in vivo at 200 mg/kg (Mus musculus [28]): 16.9%; inhibition in vivo at 50 mg/kg (Mus musculus [29]): 17.9%
CCOC(=O)Cc1csc2nc(-c3ccc(Cl)cc3)nn12 | Non-toxic | Non-toxic | 37.2 ×10⁻² mm | 58.6 ×10⁻² mm | 38.5% | 24.9% | 88.5 ×10⁻² mm | 52.5 ×10⁻² mm | 43.7 ×10⁻² mm | 70 ×10⁻² mm | 157.2 nmol/g | 33.3% | – | 105 ×10⁻² mm | 82.5 ×10⁻² mm | 29.1 ×10⁻² mm | 61 ×10⁻² mm | 86.7 ×10⁻² mm | 66.1 ×10⁻² mm | – | inhibition in vivo at 200 mg/kg (Mus musculus [28]): 25.4%; inhibition in vivo at 200 mg/kg (Mus musculus [26]): 28.5%; inhibition in vivo at 200 mg/kg (Mus musculus [30]): 17.4%
COc1cc(CCC2=NC(=S)N=N2)cc(OC)c1OC | Non-toxic | Non-toxic | 50.5 ×10⁻² mm | 70.3 ×10⁻² mm | – | – | 74.5 ×10⁻² mm | 30.8 ×10⁻² mm | 28 ×10⁻² mm | 65.1 ×10⁻² mm | 79.1 nmol/g | 38% | 52.2% | 84.1 ×10⁻² mm | 37.3 ×10⁻² mm | 39.7 ×10⁻² mm | 52.6 ×10⁻² mm | 106.7 ×10⁻² mm | 48.2 ×10⁻² mm | 40.8% | inhibition in vivo at 50 mg/kg (Mus musculus [31]): 19.9%; inhibition in vivo at 100 mg/kg (Mus musculus [32]): 28.2%
